Experimental data as given in patent publication US8110660B2, “Soluble ENPP4 protein” (Ono Pharmaceutical Co., Ltd., priority 2004, dated 2012).

Assays:
Format in all cases: biochemical
[1] = biological target: T1, purified soluble type ENPP5 protein (Homo sapiens, UniProt Q9UJA9); test: Inhibition of light-emitting substrate degradation by soluble type ENPP5 protein
T1 construct: signal peptide; base No. 1 to 66, mature protein; base No. 67 to 1287; made in house; host or cells: HEK293T (secreted into culture supernatant, His-Trap purified)
T1 sequence (Q9UJA9 23-429): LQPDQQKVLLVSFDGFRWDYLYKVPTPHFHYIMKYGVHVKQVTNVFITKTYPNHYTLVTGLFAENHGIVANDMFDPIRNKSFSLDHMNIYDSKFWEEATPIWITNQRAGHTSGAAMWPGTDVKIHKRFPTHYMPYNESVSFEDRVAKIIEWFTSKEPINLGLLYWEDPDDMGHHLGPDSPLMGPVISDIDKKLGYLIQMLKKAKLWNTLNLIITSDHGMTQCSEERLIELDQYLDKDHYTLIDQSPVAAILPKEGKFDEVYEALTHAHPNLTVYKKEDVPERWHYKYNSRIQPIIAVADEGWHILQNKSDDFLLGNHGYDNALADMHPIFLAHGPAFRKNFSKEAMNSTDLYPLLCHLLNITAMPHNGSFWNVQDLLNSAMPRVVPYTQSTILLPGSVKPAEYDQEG
Description: 0.2 μg of the purified soluble type ENPP5 protein was mixed in 90 μL of assay buffer (20 mM HEPES, 140 mM NaCl, 5 mM KCl, 10 mM Glucose, pH 7.5), and 10 μL of each of 10 mM pNP-PP and a solution of a test compound was added thereto, and then was kept at 37° C. for 2 hours. Then, absorption of light of 405 nm was measured and thereby, the amount of p-nitorphenol was quantitatively determined and thereby the inhibitory activity of […] pNP-PP degradation of each of the test compound was examined. By using Neurotransmitter Library Plate 10 (Purinergic & adenosines) ver. 2 (manufactured by BIOMOL Inc.) as test compounds, and the inhibitory activity of pNP-TMP degradation of each of 1 mM compounds was measured and, 70% or more of the inhibitory activity was detected in 2-Methyl-ATP, and 80% or more of the inhibitory activity was detected in ADP, UDP, and GDP.

[2] = biological target: T1, purified soluble type ENPP5 protein; test: Identification of nucleic acids to be ENPP5 substrate (HPLC); conditions: 200 μM nucleic acid, pH 7.5, 37° C., 2, 5 or 8 hours, FIG. 15
Description: (§1) 0.5 μg of the purified soluble type ENPP5 protein was mixed in 500 μL of assay buffer (20 mM HEPES, 140 mM NaCl, 5 mM KCl, 10 mM Glucose, pH 7.5), and then, each kind of nucleic acids were added thereto so that its final concentration became 200 μM. The mixture was performed at 37° C. for 2, 5, or 8 hours. Then, by using HPLC (Unison-UKC18 reversed-phase column 30×2 mm, manufactured by Imtakt Co., Ltd.) (mobile phase: 50 mM sodium phosphate buffer (pH 6.4), 5 mM tetrabutylammonium hydrogen sulfate, 1 mM EDTA, 2-30% acetonitrile), the nucleic acids were separated from the reacted solution, and the substrates and the reacted products were quantitatively determined.

[3] = biological target: T2, purified soluble type ENPP4 protein (Homo sapiens, UniProt Q9Y6X5); test: Identification of nucleic acids to be ENPP4 substrate (HPLC); conditions: for degradation by ENPP4 (NMP detected as reacted product) / degradation amount / activity of degrading by ENPP4: 200 μM nucleic acid, HPLC, FIG. 15; for degradation by ENPP4 (NMP detected as reacted product): pH 8.5, 37° C., 2, 5 or 8 hours
T2 construct: signal peptide; base No. 1 to 45, mature protein; base No. 46 to 1212; made in house; host or cells: HEK293T (secreted into culture supernatant, His-Trap purified)
T2 sequence (Q9Y6X5 16-404): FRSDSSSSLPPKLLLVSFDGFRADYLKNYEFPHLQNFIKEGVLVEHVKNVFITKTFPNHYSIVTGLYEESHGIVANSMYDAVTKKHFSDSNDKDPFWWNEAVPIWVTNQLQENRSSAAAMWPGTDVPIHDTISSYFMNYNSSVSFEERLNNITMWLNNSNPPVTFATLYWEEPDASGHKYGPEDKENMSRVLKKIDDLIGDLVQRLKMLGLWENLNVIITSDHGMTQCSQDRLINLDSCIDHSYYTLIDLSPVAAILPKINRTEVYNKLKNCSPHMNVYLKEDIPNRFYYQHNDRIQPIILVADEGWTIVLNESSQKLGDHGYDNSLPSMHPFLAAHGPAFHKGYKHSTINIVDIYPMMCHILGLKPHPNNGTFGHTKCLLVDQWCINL
Description: as §1, with “ENPP4” for “ENPP5”, “8.5),” for “7.5),”, “kept” for “performed”

[4] = biological target: T2, purified soluble type ENPP4 protein; test: Inhibition of pNP-TMP or pNP-PP degradation by soluble type ENPP4 protein
Description: 0.2 μg of the purified soluble type ENPP4 protein was mixed in 90 μL of assay buffer (20 mM HEPES, 140 mM NaCl, 5 mM KCl, 10 mM Glucose, pH 8.5), and 10 μL of each of 10 mM pNP-TMP or pNP-PP and a solution of a test compound was added thereto, and then was kept at 37° C. for 2 hours. Then, absorption of light of 405 nm was measured and thereby, the amount of p-nitorphenol was quantitatively determined and thereby the inhibitory activity of pNP-TMP or pNP-PP degradation of each test compound was examined. By using pNP-TMP and Neurotransmitter Library Plate 10 (Purinergic & adenosines) ver. […] Moreover, 60% or more of the inhibitory activity was detected in CDP-Choline, and 40% or more of the inhibitory activity was detected in P1P3-DiAdenosine-triphosphate (AP(3)A), P1P6-DiAdenosine-hexaphosphate (AP(6)A).

Row | Compound | degradation by ENPP4 (NMP detected as reacted product) [3] | further results
1 | Cc1nc(N)c2ncn(C3OC(COP(=O)(O)OP(=O)(O)OP(=O)(O)O)C(O)C3O)c2n1 (stereo not drawn) [2-Methyl-ATP] | – | inhibitory activity of pNP-TMP degradation ([1]; 1 mM compound, pH 7.5, 37° C., 2 hours): ≥ 70%
2 | Nc1ncnc2c1ncn2[C@@H]1O[C@H](COP(=O)(O)OP(=O)(O)O)[C@@H](O)[C@H]1O [ADP] | degraded by ENPP4 | degradation by ENPP5 (NMP detected as reacted product) [2]: degraded by ENPP5
3 | Nc1ncnc2c1ncn2[C@@H]1O[C@H](COP(=O)(O)OP(=O)(O)OP(=O)(O)OC[C@H]2O[C@@H](n3cnc4c(N)ncnc43)[C@H](O)[C@@H]2O)[C@@H](O)[C@H]1O [AP(3)A, P1P3-DiAdenosine-triphosphate] | degraded by ENPP4 | –
4 | Nc1ncnc2c1ncn2[C@@H]1O[C@H](COP(=O)(O)OP(=O)(O)OP(=O)(O)OP(=O)(O)OC[C@H]2O[C@@H](n3cnc4c(N)ncnc43)[C@H](O)[C@@H]2O)[C@@H](O)[C@H]1O [AP(4)A, P1P4-DiAdenosine-tetraphosphate] | degraded by ENPP4 | degradation amount / activity of degrading by ENPP4 [3]: lower than the activity of degrading Ap(3)A
5 | Nc1ncnc2c1ncn2[C@@H]1O[C@H](COP(=O)(O)OP(=O)(O)OP(=O)(O)OP(=O)(O)OP(=O)(O)OP(=O)(O)OC[C@H]2O[C@@H](n3cnc4c(N)ncnc43)[C@H](O)[C@@H]2O)[C@@H](O)[C@H]1O [AP(6)A, P1P6-DiAdenosine-hexaphosphate] | degraded by ENPP4 | –
6 | Nc1ncnc2c1ncn2[C@@H]1O[C@H](COP(=O)(O)OP(=O)(O)OP(=O)(O)O)[C@@H](O)[C@H]1O [ATP] | degraded by ENPP4 | concentration dependence of inhibitory activity of pNP-PC degradation by ENPP5 ([1]; FIG. 13): inhibitory activity of pNP-PC degradation depending on concentration of ATP was detected; degradation amount / activity of degrading by ENPP4 [3]: small; inhibitory activity against ENPP4 (concluded from small degradation and high inhibition) ([3]; conclusion from Examples 16 and 19): has an inhibitory activity against ENPP4; concentration dependence of inhibitory activity against ENPP4 ([4]; FIG. 12, pNP-TMP degradation): inhibitory activity depending on concentration of ATP was detected
7 | C[N+](C)(C)CCOP(=O)(O)OP(=O)([O-])OC[C@H]1O[C@@H](n2ccc(N)nc2=O)[C@H](O)[C@@H]1O [CDP-Choline] | degraded by ENPP4 | degradation by ENPP5 (NMP detected as reacted product) [2]: degraded by ENPP5; inhibition at 1000 µM ([4]; 1 mM compound, pH 8.5, 37° C., 2 hours, FIG. 11 (pNP-TMP), read-out: inhibitory activity of pNP-TMP or pNP-PP degradation): ≥ 60%
8 | Nc1ccn([C@@H]2O[C@H](COP(=O)(O)OP(=O)(O)O)[C@@H](O)[C@H]2O)c(=O)n1 [CDP] | degraded by ENPP4 | –
9 | Nc1ccn([C@@H]2O[C@H](COP(=O)(O)OP(=O)(O)OP(=O)(O)O)[C@@H](O)[C@H]2O)c(=O)n1 [CTP] | degraded by ENPP4 | –
10 | O=c1ccn([C@@H]2O[C@H](COP(=O)(O)OP(=O)(O)O)[C@@H](O)[C@H]2O)c(=O)[nH]1 [UDP] | degraded by ENPP4 | degradation by ENPP5 (NMP detected as reacted product) [2]: degraded by ENPP5
11 | O=c1ccn([C@@H]2O[C@H](COP(=O)(O)OP(=O)(O)OP(=O)(O)O)[C@@H](O)[C@H]2O)c(=O)[nH]1 [UTP] | degraded by ENPP4 | –
12 | diadenosine 5-phosphate [Ap(5)A] | degraded by ENPP4 | –
